In patent US11147272B2, “Pyridone compounds and agricultural and horticultural fungicides comprising the same as active ingredients” (MITSUI CHEMICALS AGRO, INC., priority 2017, dated 2021):

Legend:
[1] = test system: Magnaporthe grisea; assay: whole plant or invertebrate; format: in vivo; settings: 250 ppm drug solution sprayed on test plant
[2] = test system: Alternaia brassicicola; assay: Test Example C: Alternaria sooty spot on cabbage; format: in vivo; settings: 250 ppm drug solution sprayed on test plant
Excerpt: Seeds of a test plant (cabbage variety: Shikidori) were planted and cultivated until the cotyledons extended.
<Control Value> Control value=100{1−(n/3)}

[3] = test system: Puccinia recondita; assay: Test Example E: Brown rust on wheat; format: in vivo; settings: 250 ppm drug solution sprayed on test plant
[4] = test system: Phytophthora infestans; assay: whole plant or invertebrate; format: in vivo; settings: 250 ppm drug solution sprayed on test plant
[5] = test system: Botrytis cinerea; assay: Test Example B: Gray mold on tomato; settings: 250 ppm drug solution sprayed on test plant
[6] = test system: Plasmopara viticola; assay: Test Example G: Downy mildew on vine; settings: 250 ppm drug solution sprayed (2.5 ml/pot), grape Neomuscat, 7 to 10 days after inoculation
[7] = test system: Colletotrichum orbiculare; assay: Test Example H: Anthracnose on cucumber; settings: 250 ppm drug solution sprayed (2.5 ml/pot), cucumber Sagami Hanjiro, 6 to 10 days after inoculation
[8] = test system: Blumeria graminis f. sp. hordei; assay: Test Example D: Powdery mildew on barley; settings: 250 ppm drug solution sprayed on test plant

Compound	Test A control value [1]	Test C control value [2]	Test E control value [3]	Test F control value [4]	Test B control value [5]	Test G control value [6]	Test H control value [7]	Test D control value [8]
CC(C)C(C)(O)c1cc(Br)c(=O)n(C)c1-c1c(F)cc(F)cc1F (stereo not drawn) [compound 423]	H (more than 50% control value)	H (more than 50% control value)	H (more than 50% control value)	H (more than 50% control value)	H (more than 50% control value)	H (more than 50% control value)	H (more than 50% control value)	H (more than 50% control value)
CCCC1=C(c2c(F)cc(F)cc2F)N(CC)C(=S)CC1 [compound 424]	L (50% or less control value)	L (50% or less control value)	L (50% or less control value)	L (50% or less control value)	H (more than 50% control value)	L (50% or less control value)	L (50% or less control value)	L (50% or less control value)
CCCc1ccc(=O)n(CC)c1-c1c(F)cccc1F [compound 426]	H (more than 50% control value)	H (more than 50% control value)	L (50% or less control value)	L (50% or less control value)	H (more than 50% control value)	L (50% or less control value)	H (more than 50% control value)	L (50% or less control value)
CCCc1ccc(=S)n(CC)c1-c1c(F)cc(F)cc1F [compound 427]	L (50% or less control value)	H (more than 50% control value)	L (50% or less control value)	L (50% or less control value)	H (more than 50% control value)	L (50% or less control value)	H (more than 50% control value)	L (50% or less control value)
CCCc1cc(Cl)c(=O)n(CC)c1-c1c(F)cccc1F [compound 428]	H (more than 50% control value)	H (more than 50% control value)	H (more than 50% control value)	L (50% or less control value)	H (more than 50% control value)	H (more than 50% control value)	H (more than 50% control value)	H (more than 50% control value)
CCCc1cc(Br)c(=O)n(CC)c1-c1c(F)cccc1F [compound 429]	H (more than 50% control value)	H (more than 50% control value)	H (more than 50% control value)	L (50% or less control value)	H (more than 50% control value)	H (more than 50% control value)	H (more than 50% control value)	H (more than 50% control value)
CCCc1cc(Cl)c(=S)n(CC)c1-c1c(F)cc(F)cc1F [compound 430]	H (more than 50% control value)	H (more than 50% control value)	H (more than 50% control value)	L (50% or less control value)	H (more than 50% control value)	L (50% or less control value)	H (more than 50% control value)	H (more than 50% control value)
CCCc1cc(Br)c(=O)n(C)c1-c1ccc(OC)cc1C [compound 431]	H (more than 50% control value)	H (more than 50% control value)	H (more than 50% control value)	L (50% or less control value)	H (more than 50% control value)	H (more than 50% control value)	H (more than 50% control value)	H (more than 50% control value)
COC(C)(c1cc(Br)c(=O)n(C)c1-c1c(F)cc(F)cc1F)C(C)C (stereo not drawn) [compound 432]	H (more than 50% control value)	H (more than 50% control value)	H (more than 50% control value)	L (50% or less control value)	H (more than 50% control value)	L (50% or less control value)	H (more than 50% control value)	H (more than 50% control value)
CCCc1cc(Cl)c(=O)n(C)c1-c1ccc(OC)cc1C [compound 433]	L (50% or less control value)	H (more than 50% control value)	H (more than 50% control value)	L (50% or less control value)	H (more than 50% control value)	H (more than 50% control value)	H (more than 50% control value)	H (more than 50% control value)
CCCc1cc(I)c(=O)n(CC)c1-c1c(F)cc(F)cc1F [compound 434]	H (more than 50% control value)	H (more than 50% control value)	H (more than 50% control value)	L (50% or less control value)	H (more than 50% control value)	L (50% or less control value)	H (more than 50% control value)	H (more than 50% control value)
CCCC1=C(c2c(F)cc(F)cc2F)N(CCC)C(=O)CC1 [compound 435]	L (50% or less control value)	H (more than 50% control value)	L (50% or less control value)	H (more than 50% control value)	L (50% or less control value)	L (50% or less control value)	L (50% or less control value)	L (50% or less control value)
CCCc1cc(I)c(=O)n(CC)c1-c1c(F)cc(OC)cc1F [compound 436]	H (more than 50% control value)	H (more than 50% control value)	H (more than 50% control value)	L (50% or less control value)	H (more than 50% control value)	L (50% or less control value)	H (more than 50% control value)	H (more than 50% control value)
CCCc1ccc(=O)n(CCC)c1-c1c(F)cc(F)cc1F [compound 437]	L (50% or less control value)	L (50% or less control value)	L (50% or less control value)	L (50% or less control value)	L (50% or less control value)	L (50% or less control value)	H (more than 50% control value)	H (more than 50% control value)
CCCc1ccc(=O)n(CC)c1-c1c(F)cc(O)cc1F [compound 438]	L (50% or less control value)	H (more than 50% control value)	H (more than 50% control value)	L (50% or less control value)	H (more than 50% control value)	L (50% or less control value)	L (50% or less control value)	L (50% or less control value)
